Results as given in patent US11130756B2, “[1,2,4]Triazolo[4,3-A]pyridinyl substituted indole compounds” (BRISTOL-MYERS SQUIBB COMPANY, priority 2017, dated 2021).

Columns and labels:
Assay type in all cases: cell-based
[1] = biological target: T1, human TLR7 (Homo sapiens, UniProt Q9NYK1); assay: TLR7 inhibition reporter assay (HEK-Blue, SEAP); settings: HEK-Blue cells overexpressing human TLR7, gardiquimod 7.5 μM, 22 hour incubation
T1 construct: host or cells: HEK-Blue cells
T1 sequence (Q9NYK1 27-1049): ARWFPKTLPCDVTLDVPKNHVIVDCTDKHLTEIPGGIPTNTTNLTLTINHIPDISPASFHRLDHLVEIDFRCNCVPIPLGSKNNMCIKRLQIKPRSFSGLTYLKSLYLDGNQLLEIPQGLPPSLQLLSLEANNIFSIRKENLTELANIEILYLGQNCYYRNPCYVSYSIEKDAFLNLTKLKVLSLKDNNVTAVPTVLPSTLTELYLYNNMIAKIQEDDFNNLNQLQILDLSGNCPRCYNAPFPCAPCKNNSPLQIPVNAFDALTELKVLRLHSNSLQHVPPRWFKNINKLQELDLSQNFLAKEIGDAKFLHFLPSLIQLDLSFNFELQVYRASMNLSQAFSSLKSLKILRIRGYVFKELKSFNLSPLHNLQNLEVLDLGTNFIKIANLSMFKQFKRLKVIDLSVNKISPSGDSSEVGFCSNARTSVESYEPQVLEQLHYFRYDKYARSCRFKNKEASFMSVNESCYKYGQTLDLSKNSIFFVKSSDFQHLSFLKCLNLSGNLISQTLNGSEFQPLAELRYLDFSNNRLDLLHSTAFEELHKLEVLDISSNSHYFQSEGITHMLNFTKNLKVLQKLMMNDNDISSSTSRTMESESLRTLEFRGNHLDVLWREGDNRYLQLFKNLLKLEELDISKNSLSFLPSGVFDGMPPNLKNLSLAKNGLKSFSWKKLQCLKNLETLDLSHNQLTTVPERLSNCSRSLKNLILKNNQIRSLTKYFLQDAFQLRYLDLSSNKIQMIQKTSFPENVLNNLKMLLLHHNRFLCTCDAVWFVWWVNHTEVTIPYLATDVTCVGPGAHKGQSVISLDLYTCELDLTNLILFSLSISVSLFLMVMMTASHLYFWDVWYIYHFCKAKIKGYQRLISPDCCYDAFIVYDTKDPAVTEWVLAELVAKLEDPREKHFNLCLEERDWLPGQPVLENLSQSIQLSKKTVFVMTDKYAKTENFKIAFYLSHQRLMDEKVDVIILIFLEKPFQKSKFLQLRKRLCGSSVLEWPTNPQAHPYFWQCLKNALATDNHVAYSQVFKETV
Protocol: (§1) TLR7/8/9 Inhibition Reporter Assays
(§2) HEK-Blue™-cells (Invivogen) overexpressing human TLR7, TLR8 or TLR9 receptors were used for screening inhibitors of these receptors using an inducible SEAP (secreted embryonic alkaline phosphatase) reporter gene under the control of the IFN-β minimal promoter fused to five NF-κB and AP-1-binding sites. Briefly, cells are seeded into Greiner 384 well plates (15000 cells per well for TLR7, 20,000 for TLR8 and 25,000 for TLR9) and then treated with test compounds in DMSO to yield a final dose response concentration range of 0.05 nM-50 μM. After a 30 minute compound pre-treatment at room temperature, the cells are then stimulated with a TLR7 ligand (gardiquimod at a final concentration of 7.5 μM), TLR8 ligand (R848 at a final concentration of 15.9 μM) or TLR9 ligand (ODN2006 at a final concentration of 5 nM) to activate NF-κB and AP-1 which induce the production of SEAP. After a 22 hour incubation at 37° C., 5% CO2, SEAP levels are determined with the addition of HEK-Blue™ Detection reagent (Invivogen), a cell culture medium that allows for detection of SEAP, according to manufacturer's specifications. The percent inhibition is determined as the % reduction in the HEK-Blue signal present in wells treated with agonist plus DMSO alone compared to wells treated with a known inhibitor.

[2] = biological target: T2, human TLR9 (Homo sapiens, UniProt Q9NR96); assay: TLR9 inhibition reporter assay (HEK-Blue, SEAP); settings: HEK-Blue cells overexpressing human TLR9, ODN2006 5 nM, 22 hour incubation
T2 construct: host or cells: HEK-Blue cells
T2 sequence (Q9NR96 26-1032): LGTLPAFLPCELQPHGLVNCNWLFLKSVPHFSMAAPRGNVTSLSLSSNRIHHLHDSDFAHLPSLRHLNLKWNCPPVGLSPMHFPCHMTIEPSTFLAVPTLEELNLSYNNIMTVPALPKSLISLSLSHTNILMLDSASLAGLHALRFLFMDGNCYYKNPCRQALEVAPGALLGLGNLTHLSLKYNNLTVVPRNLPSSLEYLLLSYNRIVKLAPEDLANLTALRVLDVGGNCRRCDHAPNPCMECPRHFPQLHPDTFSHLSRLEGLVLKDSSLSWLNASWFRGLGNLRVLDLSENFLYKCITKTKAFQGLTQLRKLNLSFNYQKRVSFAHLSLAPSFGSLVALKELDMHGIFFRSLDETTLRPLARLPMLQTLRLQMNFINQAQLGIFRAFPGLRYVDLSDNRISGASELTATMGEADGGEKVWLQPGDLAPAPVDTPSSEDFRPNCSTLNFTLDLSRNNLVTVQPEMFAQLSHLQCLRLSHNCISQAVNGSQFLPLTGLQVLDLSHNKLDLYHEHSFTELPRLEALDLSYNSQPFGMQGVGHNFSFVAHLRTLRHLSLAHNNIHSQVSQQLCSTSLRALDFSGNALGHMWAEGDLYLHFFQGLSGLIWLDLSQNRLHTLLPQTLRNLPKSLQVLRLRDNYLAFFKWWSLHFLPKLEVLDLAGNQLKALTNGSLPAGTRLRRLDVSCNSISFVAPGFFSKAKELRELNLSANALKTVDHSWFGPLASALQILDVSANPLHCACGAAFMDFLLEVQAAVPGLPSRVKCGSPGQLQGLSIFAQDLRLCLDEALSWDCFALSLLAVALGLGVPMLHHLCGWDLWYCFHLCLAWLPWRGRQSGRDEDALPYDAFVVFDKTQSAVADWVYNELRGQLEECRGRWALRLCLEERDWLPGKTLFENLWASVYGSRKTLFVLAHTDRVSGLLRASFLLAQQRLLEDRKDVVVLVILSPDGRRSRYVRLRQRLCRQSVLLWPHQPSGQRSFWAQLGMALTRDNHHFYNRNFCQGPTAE
Protocol: as §1, §2

[3] = biological target: T3, human TLR8 (Homo sapiens, UniProt Q9NR97); assay: TLR8 inhibition reporter assay (HEK-Blue, SEAP); settings: HEK-Blue cells overexpressing human TLR8, R848 15.9 μM, 22 hour incubation
T3 construct: host or cells: HEK-Blue cells
T3 sequence (Q9NR97 27-1041): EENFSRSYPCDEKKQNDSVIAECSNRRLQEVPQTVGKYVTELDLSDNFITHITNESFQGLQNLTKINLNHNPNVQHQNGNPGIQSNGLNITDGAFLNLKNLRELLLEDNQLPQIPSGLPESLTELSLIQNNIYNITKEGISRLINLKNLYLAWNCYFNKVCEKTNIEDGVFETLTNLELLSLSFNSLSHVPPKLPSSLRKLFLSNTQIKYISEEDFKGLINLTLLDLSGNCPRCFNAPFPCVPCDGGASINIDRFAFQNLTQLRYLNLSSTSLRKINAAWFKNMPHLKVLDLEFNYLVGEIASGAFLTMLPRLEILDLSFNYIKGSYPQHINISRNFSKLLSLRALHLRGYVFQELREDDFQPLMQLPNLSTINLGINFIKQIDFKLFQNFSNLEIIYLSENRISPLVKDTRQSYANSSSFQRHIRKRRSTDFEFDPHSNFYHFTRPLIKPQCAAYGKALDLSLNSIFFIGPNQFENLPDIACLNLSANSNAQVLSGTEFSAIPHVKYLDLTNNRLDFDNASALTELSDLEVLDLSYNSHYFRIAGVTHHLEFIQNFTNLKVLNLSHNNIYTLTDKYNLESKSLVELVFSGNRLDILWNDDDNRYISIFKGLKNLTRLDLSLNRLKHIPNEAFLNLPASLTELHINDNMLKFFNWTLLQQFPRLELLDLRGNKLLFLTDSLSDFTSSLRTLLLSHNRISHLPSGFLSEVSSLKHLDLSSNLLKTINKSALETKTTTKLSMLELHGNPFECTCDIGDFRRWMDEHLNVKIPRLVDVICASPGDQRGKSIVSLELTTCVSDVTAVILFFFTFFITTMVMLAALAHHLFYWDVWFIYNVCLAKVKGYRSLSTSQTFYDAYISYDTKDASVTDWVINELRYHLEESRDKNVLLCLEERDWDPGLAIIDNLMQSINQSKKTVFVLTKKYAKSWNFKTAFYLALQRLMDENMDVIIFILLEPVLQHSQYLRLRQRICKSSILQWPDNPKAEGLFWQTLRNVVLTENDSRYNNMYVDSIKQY
Protocol: as §1, §2

Row | IC50 [1] | IC50 [2] | IC50 [3] | SMILES
1 | 0.0228 µM | 0.902 µM | 0.14 µM | CC(C)c1c(-c2ccc3nncn3c2)[nH]c2ccc(C3CCNCC3)cc12 [Example 1, 6-(3-isopropyl-5-(piperidin-4-yl)-1H-indol-2-yl)-[1,2,4]triazolo[4,3-a]pyridine]
2 | 0.0048 µM | 0.528 µM | 0.0125 µM | Cc1cc(-c2[nH]c3ccc(C4CCNCC4)cc3c2C(C)C)cn2cnnc12 [Example 2, 6-(3-isopropyl-5-(piperidin-4-yl)-1H-indol-2-yl)-8-methyl-[1,2,4]triazolo[4,3-a]pyridine]
3 | 0.0271 µM | 0.34 µM | 0.0407 µM | Cc1nnc2ccc(-c3[nH]c4ccc(C5CCNCC5)cc4c3C(C)C)cn12 [Example 3, 6-(3-isopropyl-5-(piperidin-4-yl)-1H-indol-2-yl)-3-methyl-[1,2,4]triazolo[4,3-a]pyridine]
4 | 0.0567 µM | 2.43 µM | 2.34 µM | Cc1cc2nncn2cc1-c1[nH]c2ccc(C3CCNCC3)cc2c1C(C)C [Example 4, 6-(3-isopropyl-5-(piperidin-4-yl)-1H-indol-2-yl)-7-methyl-[1,2,4]triazolo[4,3-a]pyridine]
5 | 0.154 µM | 1.24 µM | 0.133 µM | Cc1c(-c2[nH]c3ccc(C4CCNCC4)cc3c2C(C)C)ccc2nncn12 [Example 5, 6-(3-isopropyl-5-(piperidin-4-yl)-1H-indol-2-yl)-5-methyl-[1,2,4]triazolo[4,3-a]pyridine]
6 | 0.0052 µM | 0.486 µM | 0.0189 µM | Cc1cc(-c2[nH]c3ccc(C4CCNCC4)cc3c2C(C)C)cn2c(C)nnc12 [Example 6, 6-(3-isopropyl-5-(piperidin-4-yl)-1H-indol-2-yl)-3,8-dimethyl-[1,2,4]triazolo[4,3-a]pyridine]
7 | 0.156 µM | 3.23 µM | 1.23 µM | COCc1nnc2ccc(-c3[nH]c4ccc(C5CCNCC5)cc4c3C(C)C)cn12 [Example 7, 6-(3-isopropyl-5-(piperidin-4-yl)-1H-indol-2-yl)-3-(methoxymethyl)-[1,2,4]triazolo[4,3-a]pyridine]
8 | 0.0052 µM | 1.88 µM | 0.0296 µM | Cc1c(-c2[nH]c3ccc(C4CCNCC4)cc3c2C(C)C)cn2cnnc2c1C [Example 8, 6-(3-isopropyl-5-(piperidin-4-yl)-1H-indol-2-yl)-7,8-dimethyl-[1,2,4]triazolo[4,3-a] pyridine]
9 | 0.031 µM | 0.746 µM | 0.0115 µM | Cc1cc(-c2[nH]c3ccc(C4CCNCC4)cc3c2C(C)C)c(C)n2cnnc12 [Example 9, 6-(3-isopropyl-5-(piperidin-4-yl)-1H-indol-2-yl)-5,8-dimethyl-[1,2,4] triazolo[4,3-a]pyridine]
10 | 0.0046 µM | 3.12 µM | 0.107 µM | Cc1c(-c2[nH]c3ccc(C4CCNCC4)cc3c2C(C)C)cn2cnnc2c1Cl [Example 10, 8-chloro-6-(3-isopropyl-5-(piperidin-4-yl)-1H-indol-2-yl)-7-methyl-[1,2,4]triazolo[4,3-a]pyridine]
11 | 0.0062 µM | 0.563 µM | 0.074 µM | COc1cc(-c2[nH]c3ccc(C4CCNCC4)cc3c2C(C)C)cn2cnnc12 [Example 11, 6-(3-isopropyl-5-(piperidin-4-yl)-1H-indol-2-yl)-8-methoxy-[1,2,4]triazolo[4,3-a]pyridine]
12 | 0.0015 µM | 1.9 µM | 0.0069 µM | Cc1cc(-c2[nH]c3ccc(C4CCN(CC(=O)N(C)C)CC4)cc3c2C(C)C)cn2cnnc12 [Example 12, 2-(4-(3-isopropyl-2-(8-methyl-[1,2,4]triazolo[4,3-a]pyridin-6-yl)-1H-indol-5-yl)piperidin-1-yl)-N,N-dimethylacetamide]

Row | SMILES | IC50 [1] | IC50 [2] | IC50 [3]
13 | Cc1c(-c2[nH]c3ccc(C4C[C@H]5CC[C@@H](C4)N5CC4(C)COC4)cc3c2C(C)C)cn2cnnc2c1C (single isomer, unassigned) [Example 121] | 0.0032 µM | 4.84 µM | 0.0476 µM
14 | Cc1c(-c2[nH]c3ccc(C4C[C@H]5CC[C@@H](C4)N5C4COC4)cc3c2C(C)C)cn2cnnc2c1C (single isomer, unassigned) [Example 122] | 0.0023 µM | 5.94 µM | 0.0989 µM
15 | Cc1c(-c2[nH]c3ccc(C4C[C@H]5CC[C@@H](C4)N5C4COC4)cc3c2C(C)C)cn2cnnc2c1C (single isomer, unassigned) [Example 123] | 0.0076 µM | 8.48 µM | 0.151 µM
